Results: the CheMixHub viscosity set

Experiment: xn = mol fraction of the nth substance listed

COCC(C)O (stereo not drawn) + O
viscosity [mPa·s], 101.33 kPa
Settings | 298.15 K | 308.15 K | 318.15 K
x1 = 0.0222 | 1.29 | 1 | 0.8257
x1 = 0.0396 | 1.651 | 1.236 | 0.98
x1 = 0.1131 | 3.035 | 2.119 | 1.579
x1 = 0.1959 | 3.731 | 2.615 | 1.925
x1 = 0.301 | 3.864 | 2.73 | 2.015
x1 = 0.3583 | 3.811 | 2.663 | 1.978
x1 = 0.4651 | 3.515 | 2.438 | 1.841
x1 = 0.5264 | 3.124 | 2.3 | 1.744
x1 = 0.7332 | 2.414 | 1.823 | 1.42
x1 = 0.8372 | 2.094 | 1.61 | 1.277
x1 = 0.9035 | 1.929 | 1.49 | 1.189

Cc1nc(C)c(C)[nH]1 + O
viscosity [mPa·s], 100 kPa
Settings | x1 = 0.0179 | x1 = 0.0393 | x1 = 0.0655 | x1 = 0.0983 | x1 = 0.141
298.15 K | 1.317 | 2.01 | 3.12 | 5.27 | 9.35
303.15 K | 1.157 | 1.754 | 2.71 | 4.41 | 7.38
313.15 K | 0.944 | 1.384 | 2.08 | 3.24 | 4.87
323.15 K | 0.774 | 1.1 | 1.598 | 2.4 | 3.44
